Entries after “also recorded” stand apart in the source; their conditions may differ.
Legend:
[1] = Click reaction of azide-labeled decellularized rat epigastric flaps with Vancomycin-alkyne; conditions: Ac4GalNAz-labeled REF versus DMSO control, Vancomycin-alkyne 100 μM click
Protocol: Vancomycin is made clickable by conjugating an alkyne group to the only primary amine present as described above (see, e.g., FIG. 22, Example 3). The structure of the resulting clickable vancomycin-alkyne was confirmed by LC-MS/MS analysis (FIG. 23). Using the previously described click reaction, Vancomycin was immobilized onto the ECM. Copper-catalyzed click reaction was performed on decellularized rat epigastric flaps by perfusion (0.5 ml/min) using Vancomycin-alkyne (100 μM) and Click-iT® Cell Reaction Buffer Kit (ThermoFisher, Catalog number: C10269) for one hour at room temperature, followed by intensive washing and detection of immobilized vancomycin using a vancomycin-specific antibody.

[2] = test system: decellularized rat lung scaffolds; experiment: In vivo metabolic labeling of rat lung ECM with azide-labeled sugars
Protocol: All animal experiments were approved by the Massachusetts General Hospital Institutional Animal Care and Use Committee and performed in compliance with the Animal Welfare Act. Male Sprague-Dawley rats (100-125 g, Charles River Laboratories) was administered with metabolic labeling reagents (Ac4GalNAz, Ac4GlcNAz or Ac4ManNAz) (30 mg/day, Click Chemistry Tools) via intraperitoneal injection daily for three days. […] Decellularized organ and tissue scaffolds were washed sequentially with distilled water, 1% Triton X and PBS.
(§1) All samples were fixed with 4% paraformaldehyde (Boston BioProducts), paraffin-embedded, and sectioned at 5-μm thickness. Following deparaffinization, rehydration and antigen retrieval using Antigen Unmasking Solution (Vector Laboratories), the sections were processed for either on-section click reaction or regular histological staining. For on-section click reaction, sections of acellular organ scaffolds derived from in vivo or ex vivo metabolic engineering were incubated with Biotin-Alkyne click reaction mix, with and without copper (II) sulfate, for 1 hour at room temperature, followed by extensive washing with PBS. For regular histological staining of biotin and Laminin, the sections were incubated with Rabbit-anti-Laminin antibody (Abcam, ab11575, 1:200) overnight at 4° C., followed by staining with Alexa Fluor 488-conjugated Donkey-anti-Rabbit antibody (A-21206, 1:500) and Alexa Fluor 647-conjugated Streptavidin (Life Technologies, S-32357, 1:500). Images were acquired using a Nikon Eclipse TE200 microscope and NIS-Elements imaging software. The fluorescence intensity of Azide-Biotin-Streptavidin and Laminin staining was quantified using ImageJ (NIH).
To conjugate Biotin-Alkyne onto the azide-labeled acellular lung ECM for Western blot analysis, a small piece of lung tissue was homogenized with gentleMACS Dissociator (Miltenyi Biotec) in PBS, and incubated with 1 ml Biotin-Alkyne click reaction mix for 1 hour at room temperature, followed by extensive washing in PBS. The ECM proteins from the clicked lung tissue was extracted using urea buffer as described below. […] Following BCA quantification, the protein samples were analyzed using SDS-PAGE under reducing condition, transferred to nitrocellulose blotting membranes, and incubated with primary antibodies overnight at 4° C., followed by incubation with HRP-conjugated secondary antibodies for 1 hour at room temperature before autoradiography. […]

[3] = test system: decellularized scaffolds of the rat carotid artery, heart, liver, kidney and skin; experiment: In vivo metabolic labeling of ECM of other rat organs/tissues
Protocol: Male Sprague-Dawley rats (100-125 g, Charles River Laboratories) was administered with metabolic labeling reagents (Ac4GalNAz, Ac4GlcNAz or Ac4ManNAz) (30 mg/day, Click Chemistry Tools) via intraperitoneal injection daily for three days. […] Full-thickness skin grafts were harvested from the abdomen of the animal and decellularized by immersion with agitation in 1% SDS. Decellularized organ and tissue scaffolds were washed sequentially with distilled water, 1% Triton X and PBS.
as §1
For metabolic engineering of organs/tissues in vivo in the rat model, azide-labeled sugars (300 mg/kg body weight in 70% DMSO) were administered through intraperitoneal injection daily. One day after the last azide-labeled sugar administration, organs/tissues were harvested and perfusion decellularized (See FIGS. 1 and 13). The presence of azide labeling in the decellularized scaffolds were evaluated by performing copper-catalyzed click reaction. […]

rat lung ECM = experiment: Ex vivo metabolic engineering of rat lung ECM; conditions: 50 μM, one day, bioreactor perfusion 5 ml/min, Cu(I) catalyst in click with biotin-alkyne
Protocol: For ex vivo metabolic engineering of the rat lung, the lung was freshly harvested from a male Sprague-Dawley rat (100-125 g). The isolated rat lung was cultured in 100 ml of DMEM/F12 medium containing 10% fetal bovine serum (DMEM/F12-FBS), with the supplementation of Ac4GalNAz (50 μM) or DMSO (0.1%), for 24 hours in a bioreactor under constant rate perfusion (5 ml/min) through the PA, followed by perfusion decellularization as described above.
All samples were fixed with 4% paraformaldehyde (Boston BioProducts), paraffin-embedded, and sectioned at 5-μm thickness. Following deparaffinization, rehydration and antigen retrieval using Antigen Unmasking Solution (Vector Laboratories), the sections were processed for either on-section click reaction or regular histological staining. […] For regular histological staining of biotin and Laminin, the sections were incubated with Rabbit-anti-Laminin antibody (Abcam, ab11575, 1:200) overnight at 4° C., followed by staining with Alexa Fluor 488-conjugated Donkey-anti-Rabbit antibody (A-21206, 1:500) and Alexa Fluor 647-conjugated Streptavidin (Life Technologies, S-32357, 1:500). […] The fluorescence intensity of Azide-Biotin-Streptavidin and Laminin staining was quantified using ImageJ (NIH). […]
The presence of azide labeling in the decellularized scaffolds were evaluated by performing copper-catalyzed click reaction. […]

[4] = test system: acellular porcine lung ECM; experiment: Ex vivo metabolic engineering of porcine left lung ECM; conditions: 50 μM, one day, perfusion 300 ml/min
Protocol: For ex vivo metabolic engineering of the porcine lung, the left lung was freshly isolated from a male Yorkshire swine (18-20 kg, Tufts University). The isolated porcine left lung was cultured DMEM/F12-FBS medium, with the supplementation of Ac4GalNAz (50 μM) or DMSO (0.1%), for 24 hours in a bioreactor under constant rate perfusion (300 ml/min) through the left main PA. 3 L of medium was initially used and was refreshed once with another 2 L of medium after the initial 16 hours of culture. A parallel oxygenation loop was used during the culture at a flow rate of 150 ml/min. Following culture, the porcine left lung was decellularized by sequential single-pass perfusion through the left main PA with 0.5% SDS, distilled water, 1% Triton X and PBS, adapted from a previously described method (Zhou, H. et al. Bioengineering Human Lung Grafts on Porcine Matrix. Annals of Surgery Publish Ahead of Print (2017)). […] The fluorescence intensity of Azide-Biotin-Streptavidin and Laminin staining was quantified using ImageJ (NIH). […] Following BCA quantification, the protein samples were analyzed using SDS-PAGE under reducing condition, transferred to nitrocellulose blotting membranes, and incubated with primary antibodies overnight at 4° C., followed by incubation with HRP-conjugated secondary antibodies for 1 hour at room temperature before autoradiography. […]

[5] = Copper-free click reaction of DBCO-activated biotin on donor lung during cold preservation; set-up: species or system rat; conditions: DBCO-activated biotin 100 μM in Perfadex on ice, within one hour
Protocol: The procedure involves two steps. In the first step, the donor rat was injected with Ac4GalNAz for three days (as described in Example 4). This allowed for metabolic labeling of the donor lung with azido tags. In the second step, the donor lung with azido labeling was preserved in preservation solution (Perfadex) containing DBCO-activated biotin at 100 μM concentration on ice for 1 hour. The lung was then intensively washed with preservation solution (Perfadex) and prepared for transplantation. The lung is fixed for histological staining of the immobilized biologically active molecule (as exemplified by biotin).
DBCO-activated biotin was used a proof-of-principle.

CN[C@H](CC(C)C)C(=O)N[C@H]1C(=O)N[C@@H](CC(N)=O)C(=O)N[C@H]2C(=O)N[C@H]3C(=O)N[C@H](C(=O)N[C@H](C(=O)O)c4cc(O)cc(O)c4-c4cc3ccc4O)[C@H](O)c3ccc(c(Cl)c3)Oc3cc2cc(c3O[C@@H]2O[C@H](CO)[C@@H](O)[C@H](O)[C@H]2O[C@H]2C[C@](C)(N)[C@H](O)[C@H](C)O2)Oc2ccc(cc2Cl)[C@H]1O [vancomycin, Vancomycin]
vancomycin staining fluorescence intensity on whole mount REF ([1]; p<0.001): increase | vancomycin staining fluorescence intensity on REF cross-sections ([1]; p<0.05): increase

CC(=O)OC[C@H]1OC(OC(C)=O)[C@H](NC(=O)CN=[N+]=[N-])[C@@H](OC(C)=O)[C@H]1OC(C)=O (stereo partly shown) [Ac4GalNAz, tetraacylated N-azidoacetylgalactosamine]
metabolic labeling efficiency of decellularized rat lung scaffolds ([2]; 3 days of metabolic labeling in donor rats, comparing to Ac4GlcNAz and Ac4ManNAz): superior labeling efficiency | biotin labeling of isolated lung ECM proteins by western blot ([2]; after click conjugation with biotin-alkyne): abundance of biotin labeling | metabolic azide labeling intensity in acellular lungs ([2]; azide-biotin-streptavidin intensity normalized to Laminin, compared with Ac4ManNAz and Ac4GlcNAz): strongest | in vivo metabolic azide labeling of decellularized scaffolds ([3]; rat carotid artery, heart, liver, kidney and skin, three-day intraperitoneal administration): efficient; also recorded: strong and specific ECM labeling | metabolic labeling of decellularized scaffolds of blood vessels and skin flaps ([3]; rat, 3 days of metabolic labeling): efficient metabolic labeling | azide labeling of the lung ECM after ex vivo culture (rat lung ECM): robust covalent azide labeling | azide incorporation into acellular porcine lung ECM after ex vivo culture [4]: specific and covalent azide incorporation

O=C(O)CCCC[C@@H]1SC[C@@H]2NC(=O)N[C@@H]21 [biotin]
immobilization of biotin onto donor lung tissue [5]: high efficiency
